The record followed here is patent EP4755875A1, “PHTHALAZINONE COMPOUND AND PREPARATION METHOD THEREFOR, PHARMACEUTICAL COMPOSITION, AND USE” (Beijing Wehand-Bio Pharmaceutical Co., Ltd, priority 2023, dated 2025).

In assay [1] the test system is PC-12 cells. Description: In vitro neuroprotective activity, hydrogen peroxide injury model (CCK-8 viability). It counts as cell-based. The following applies: Rattus norvegicus; compound 10 µM; PC-12 cells injured with hydrogen peroxide (120 µM) for 2 h; 24-hour incubation; relative to model group; read-out: Improved Viability (%). The protocol: (§1) The in vitro neuroprotective models for evaluating the test compound were hydrogen peroxide injury and glutamate injury models. The PC-12 cells were seeded in a 96-well plate at a density of 1.5 × 10^4 cells/mL, 100 µL per well. The experiment included a blank group, a model group, and drug treatment groups. The hydrogen peroxide injury and glutamate injury models were stimulated for 2 h with a final concentration of 120 µM hydrogen peroxide or 8 mM glutamate, respectively. Subsequently, the cells in the blank group were cultured in complete medium, whereas the cells in the drug treatment groups were cultured by adding 10 µM test compound. After 24-hour incubation for all groups, 10 µL of CCK-8 was added to each well. 60 min later, the absorbance at 490 nm was measured using a microplate reader. The viability was calculated. Improved Viability = (Viability in Drug Treatment Group - Viability in Model Group)/(Viability in Model Group). Table 1 Protective Effects of Phthalazinone Compounds on Nerve Cell Injury Induced by Hydrogen Peroxide (120 µM)

Assay [2] has as its system PC-12 cells. As to the kind of experiment: In vitro neuroprotective activity, glutamate injury model (CCK-8 viability). The assay is classed as cell-based. The following applies: Rattus norvegicus; compound 10 µM; PC-12 cells injured with glutamate (8 mM) for 2 h; 24-hour incubation; relative to model group; read-out: Improved Viability (%). On the procedure: as §1
Assay [3] deals with rats with ischemic stroke. As to the kind of experiment: In vivo anti-ischemic stroke activity, middle cerebral artery occlusion model. Also noted: species or system SD rats.

Structures are written as SMILES.

As to `CCCCc1nn(Cc2ccncc2)c(=O)c2c(OCCC)cccc12` [Compound 10, 2-(Pyridin-4-methylene)-4-butyl-8-propoxy-phthalazin-1(2H)-one], the activation at 10 µM with PC-12 cells [1] was determined as 1.93 ± 2.37%.

As for `CC1=NN(c2ccccc2)C(=O)C1` [Edaravone, reference compound], the activation at 10 µM in the assay with PC-12 cells [2] amounted to 3.14 ± 0.85%; with PC-12 cells [1], 11.3 ± 2.15%.

For the compound `CCCCc1nn(CC2CC2)c(=O)c2c(OCCC)cccc12` [Compound 13, 2-(Cyclopropylmethyl)-4-butyl-8-propoxy-phthalazin-1(2H)-one], the activation at 10 µM in the assay on PC-12 cells [2] was determined as 47.8 ± 8.14%; in the assay with PC-12 cells [1] it was 3.14 ± 1.45%.

`CCCCc1nn(Cc2ccc(F)cc2)c(=O)c2c(OCC3CC3)cccc12` [Compound 17, 2-(4-Fluorobenzyl)-4-butyl-8-(cyclopropylmethoxy)-phthalazin-1(2H)-one]: the “survival rate of rats with ischemia-reperfusion injury” value in assay [3] (intragastric 10, 30 and 60 mg/kg, once daily for 7 days, FIG. 1) is “effectively increase”. For the same compound, the “body weight of rats” value in assay [3] (intragastric 10, 30 and 60 mg/kg, once daily for 7 days, FIG. 2) is “reverse the decrease trend”. Also, in assay [3] (intragastric 10, 30 and 60 mg/kg, once daily for 7 days, TTC staining, FIG. 3), the “volume of cerebral infarction” value is given as “reduce the volume of cerebral infarction in a dose-dependent manner”. In addition, the “effects compared with positive control drug butylphthalide (200 mg/kg)” value in assay [3] (survival rate, body weight, infarction volume, Compound 17 at 10, 30, 60 mg/kg by gavage) is “superior”. The values for the activation at 10 µM in the assay on PC-12 cells [2] and in the assay on PC-12 cells [1] were 12.2 ± 2.57% and 33 ± 2.37%, respectively.

Regarding `CCCCc1nn(CC2CC2)c(=O)c2c(OC)cccc12` [Compound 4, 2-(Cyclopropylmethyl)-4-butyl-8-methoxy-phthalazin-1(2H)-one], the values for the activation at 10 µM with PC-12 cells [2] and with PC-12 cells [1] were 9.75 ± 3.22% and 23.4 ± 1.83%, respectively.

Regarding `CCCCc1nn(CC)c(=O)c2c(OCC3CCCCC3)cccc12` [Compound 7, 2-Ethyl-4-butyl-8-(cyclohexylmethoxy)-phthalazin-1(2H)-one], the activation at 10 µM in the assay with PC-12 cells [1] was determined as 0.81 ± 0.37%.

Regarding `CCCCc1nn(Cc2ccc3ccccc3c2)c(=O)c2c(OCCC)cccc12` [Compound 15, 2-(Naphthylmethyl)-4-butyl-8-propoxy-phthalazin-1(2H)-one], the activation at 10 µM in the assay with PC-12 cells [1] amounted to 1.59 ± 1.13%.

As for `CCCCc1nn(CC)c(=O)c2c(OC)cccc12` [Compound 2, 2-Ethyl-4-butyl-8-methoxy-phthalazin-1(2H)-one], the activation at 10 µM in the assay with PC-12 cells [2] is 0.04 ± 1.05%; in the assay with PC-12 cells [1], 35.8 ± 3.55%.

Take `CCCCc1nn(CC2CCCCC2)c(=O)c2c(OC)cccc12` [Compound 5]: the activation at 10 µM is 14 ± 6.21% in the assay with PC-12 cells [2] and 61.9 ± 6.53% with PC-12 cells [1].

For `CCCCc1nn(CC2CCCCC2)c(=O)c2c(OCCC)cccc12` [Compound 14, 2-(Cyclohexylmethyl)-4-butyl-8-propoxy-phthalazin-1(2H)-one], the results for the activation at 10 µM in the assay with PC-12 cells [2] and in the assay with PC-12 cells [1] were 3.16 ± 3.54% and 6.68 ± 3.51%, respectively.

On to `CCCCc1nn(Cc2ccc(F)cc2)c(=O)c2c(OCCC)cccc12` [Compound 11, 2-(4-Fluorobenzyl)-4-butyl-8-propoxy-phthalazin-1(2H)-one], for which the activation at 10 µM was 32.7 ± 6.21% in the assay with PC-12 cells [2] and 96.8 ± 8.64% in the assay with PC-12 cells [1].

Consider `CCCCc1n[nH]c(=O)c2c(OCCC)cccc12` [Compound 9, 4-Butyl-8-propoxy-phthalazin-1(2H)-one], for which the activation at 10 µM in the assay with PC-12 cells [2] stood at 7.48 ± 3.07%; in the assay with PC-12 cells [1], 60.2 ± 5.87%.

For the compound `CCCCc1nn(Cc2ccccc2)c(=O)c2c(OCC3CCCCC3)cccc12` [Compound 8, 2-Benzyl-4-butyl-8-(cyclohexylmethoxy)-phthalazin-1(2H)-one], the activation at 10 µM in the assay on PC-12 cells [2] turned out to be 7.99 ± 2.98%; with PC-12 cells [1] it was 12.1 ± 3.25%.

As for `CCCCc1nn(CCC)c(=O)c2c(OCCC)cccc12` [Compound 12, 2-Propyl-4-butyl-8-propoxy-phthalazin-1(2H)-one], the values for the activation at 10 µM with PC-12 cells [2] and in the assay on PC-12 cells [1] were 5.11 ± 2.33% and 12.9 ± 6.03%, respectively.

In the case of `CCCCc1nn(CC)c(=O)c2c(OCc3ccc4ccccc4c3)cccc12` [Compound 20, 2-Ethyl-4-butyl-8-(naphthalene-2-methoxy)-phthalazin-1(2H)-one], the activation at 10 µM in the assay on PC-12 cells [2] was determined as 8.77 ± 3.01%; in the assay on PC-12 cells [1], 34 ± 3.92%.
